For series [1], the system named is PDE-6. The settings on record: background art, cited from earlier work.
For series [2], the target named is PDE-5A (Homo sapiens (Human), UniProt O76074). Description: Caliper Mobility-Shift PDE-5A Assay. The class given is biochemical. How it is done:
Caliper Mobility-Shift PDE-5A Assay:
A sample to be tested is precisely weighed, dissolved by adding DMSO, mixed sufficiently to form 10 mM solution.
The maximum final concentration of the compound was 10 μM. After incubation at 30° C. for 1 h, 20 μl of 70 μM EDTA was added to terminate reaction. Substrate and products were separated and analyzed by electrophoresis. Conversion rate was calculated by Caliper's Reviewer software, and inhibition rate was calculated by the following formulation, and IC50 was calculated from inhibition rate using Prism 5.0. Inhibition rate=[conversion rate (ZPE)−conversion rate (sample)]×100/[conversion rate (ZPE)−conversion rate (HPE)]
Notation: HPE: blank control without adding enzyme; ZPE: blank control without adding compound.

Series [3] concerns New Zealand rabbits. The experiment in a line: Effects on penis length (AUC) by intravenous administration in New Zealand rabbits. The series is classed as in vivo. The settings on record: 10 mg/kg IV, sodium nitroprusside 0.2 mg/kg IV 5 min after administration. From the text:
New Zealand rabbits were subjected to adapt environment, and the rabbits were catched everyday before experiment so that the rabbits were used to repeated catching operation, then administration and stimulation were lunched. The animals were randomly divided according to bodyweight, samples to be tested were separately dissolved with solvent (Table 3 group: Avanafil and Compound 19 were separately dissolved with 5% DMSO+30% Cremophor EL+65% water for injection; Table 4 group, Table 5 group: Avanafil, Compound 14, Compound 17 and Compound 7 were separately dissolved with 45% DMA+20% Cremophor EL+35% water for injection; Table 6 group: Avanafil and Compound 15 were separately dissolved with 30% DMF+50% PEG-400+20% water for injection), corresponding samples to be tested were injected via ear flange veins of these groups, Table 3, Table 4, Table 5, Table 6 groups all had dose of 10 mg/kg, administration volume of 2 ml/kg, 0.2 mg/kg of sodium nitroprusside was intravenously injected in administration volume of 0.5 ml/kg after 5 min of administration.
Lengths of penis of rabbits were measured by digital vernier caliper separately before administration and at 5, 10, 15, 30, 50, 60, 90 and 120 min after administration. During each measurement, touching between penis and vernier caliper should be avoided.

A short description of series [4]: Determination of half-life in SD rats (IV and PO, plasma LC-MS/MS). Particulars: Sprague-Dawley (SD), rat.
Experimental: Avanafil as control drug and the compounds of the present invention (self-made) were dissolved with suitable solvents.
Instruments: API4000 LC-MS/MS
Chromatography column: Agilent XDB C18 (2.1×50 mm, 5 μm)
Blood sampling in rats: animals were fixed, tails were heated with water-bath at 10 min before each time point, about 100 μl of blood was collected via caudal vein, and the collected blood samples were placed in heparin sodium-containing anticoagulation tubes. The blood samples were centrifuged at 4° C. and 8,000 rpm for 6 min to obtain blood plasma samples, in which the blood plasma samples should be prepared with 30 min after blood sampling. The blood plasmas were stored in refrigerator with −80° C.
(1) Samples to be tested were taken out from refrigerator (−80° C.), melt at room temperature, then subjected to volution for 5 min;
(2) 20 μl of sample was precisely moved to 1.5 ml centrifuge tube;
(3) 200 μl of internal standard solution was added;
(4) After 5 min of volution, 5 min of centrifugation (12,000 rpm) was carried out;
(5) 100 μl of supernatant was precisely taken, 100 μl of water was added, subjected to volution for 5 min, and analyzed by LC-MS/MS.
Concentrations of samples to be tested (blood plasma samples) were the output results of Analyst 1.5.1 of AB SCIEX (Shanghai Aibocaisi Analytical Instruments Trading Co., Ltd.). Mean values, standard deviations and parameters such as variable coefficients were calculated by Microsoft Excel (when parameters were directly given by Analyst 1.5.1, they were not calculated). PK parameters were calculated using Pharsight Phoenix 6.1 software.
For series [5] the following is noted: cited from earlier work.
Series [6] deals with PDE-11 (Homo sapiens (Human), UniProt Q9HCR9). Particulars: background art; cited from earlier work.
[7] abbreviates: test compound, read-out: IC50 values for PDE-5A, PDE-5A.
Setting [8] is: Table 4 group, 45% DMA+20% Cremophor EL+35% water for injection.
[9] abbreviates: Table 3 group, 5% DMSO+30% Cremophor EL+65% water for injection.
Setting [10] is: Table 5 group, 45% DMA+20% Cremophor EL+35% water for injection.
[11] abbreviates: Table 6 group, 30% DMF+50% PEG-400+20% water for injection.

The structures appear in SMILES notation. Several values for one entry are separate records, joined by “and”; a condition that tells them apart may be missing. Equal values may be shown once. Read-outs that look alike come from different tables or passages of the source.

PDE-11, sequence (Q9HCR9 whole entry): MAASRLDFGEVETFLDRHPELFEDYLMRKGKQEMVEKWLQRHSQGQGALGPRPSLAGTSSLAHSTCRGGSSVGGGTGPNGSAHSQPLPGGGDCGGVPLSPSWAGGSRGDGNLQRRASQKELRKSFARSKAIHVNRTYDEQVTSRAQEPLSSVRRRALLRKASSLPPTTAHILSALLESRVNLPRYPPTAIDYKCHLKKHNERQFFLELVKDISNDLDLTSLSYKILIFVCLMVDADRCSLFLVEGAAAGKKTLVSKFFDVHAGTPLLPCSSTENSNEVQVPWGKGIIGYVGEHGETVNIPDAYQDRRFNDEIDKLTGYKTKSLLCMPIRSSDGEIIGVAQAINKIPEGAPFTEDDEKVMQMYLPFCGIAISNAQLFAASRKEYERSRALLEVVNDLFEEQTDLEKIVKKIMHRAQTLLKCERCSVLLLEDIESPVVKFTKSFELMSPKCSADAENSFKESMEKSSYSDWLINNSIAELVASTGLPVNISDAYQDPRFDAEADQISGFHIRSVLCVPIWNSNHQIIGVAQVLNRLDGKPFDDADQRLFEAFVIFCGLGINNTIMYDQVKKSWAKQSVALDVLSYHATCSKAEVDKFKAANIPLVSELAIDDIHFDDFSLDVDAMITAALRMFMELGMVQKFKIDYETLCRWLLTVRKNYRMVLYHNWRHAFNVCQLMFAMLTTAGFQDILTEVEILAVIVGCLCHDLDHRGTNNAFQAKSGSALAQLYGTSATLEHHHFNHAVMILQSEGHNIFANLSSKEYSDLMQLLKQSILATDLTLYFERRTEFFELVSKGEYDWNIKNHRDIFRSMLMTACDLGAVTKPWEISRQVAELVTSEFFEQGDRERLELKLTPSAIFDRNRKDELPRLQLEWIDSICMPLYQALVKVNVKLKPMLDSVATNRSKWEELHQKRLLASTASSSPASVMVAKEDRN

As for `CCCc1nn(C)c2c(=O)[nH]c(-c3cc(S(=O)(=O)N4CCN(C)CC4)ccc3OCC)nc12` [Sildenafil], the “inhibition of PDE-6” value in series [1] is “inhibit PDE-6 to some extent”.
For orientation: half-life means how long it takes for the measured level to halve. Take `COc1ccc(COc2nc(N3CCC4(CC4)C3)ncc2C(=O)NCc2ccc(F)cc2)cc1Cl` [Compound 17, 4-(3-chloro-4-methoxybenzyloxy)-N-(4-fluorobenzyl)-2-(5-azaspiro[2.4]heptan-5-yl)pyrimidine-5-carboxamide]: the IC50 in series [2] (setting [7]) came out at 2.08 nM. Moreover, the “Effects on penis length, AUC (mm × min)” value in series [3] (setting [8]) worked out at 300.9 mm × min. For the same compound, the half-life in series [4] (iv, 1 mg/kg) is 1.64 h; in series [4] (po, 2 mg/kg), 3.26 h.
In the case of `COc1ccc(COc2nc(N3CCC4(CC3)CC4)ncc2C(=O)NCc2ccccn2)cc1Cl` [Compound 9, 4-(3-chloro-4-methoxybenzyloxy)-N-(pyridin-2-ylmethyl)-2-(6-azaspiro[2.5]octan-6-yl)pyrimidine-5-carboxamide], the IC50 in series [2] (setting [7]) was 0.186 nM.
With `COc1ccc(COc2nc(N3CCC4(CC4)C3)ncc2C(=O)NCc2ncccn2)cc1Cl` [Compound 18, 4-(3-chloro-4-methoxybenzyloxy)-N-(pyrimidin-2-ylmethyl)-2-(5-azaspiro[2.4]heptan-5-yl)-pyrimidine-5-carboxamide], the IC50 in series [2] (setting [7]) amounted to 1.44 nM.
As to `COc1ccc(COc2nc(N3CC4CC4C3)ncc2C(=O)NCc2cnc(C)cn2)cc1Cl` (stereo not drawn) [Compound 5, 2-(3-azadicyclo[3.1.0]hexan-3-yl)-4-(3-chloro-4-methoxy-benzyloxy)-N-[(5-methylpyrazin-2-yl)methyl]pyrimidine-5-carboxamide], in series [2] (setting [7]), the IC50 was 0.529 nM.
Same read-out and setting: with `COc1ccc(COc2nc(N3CC4CC4C3)ncc2C(=O)NCCN2CCOCC2)cc1Cl` (stereo not drawn) [Compound 13, 2-(3-azadicyclo[3.1.0]hexan-3-yl)-4-(3-chloro-4-methoxy-benzyloxy)-N-(2-morpholinylethyl)pyrimidine-5-carboxamide] the figure was 0.213 nM.
With `COc1ccc(COc2nc(N3CCC4(CC3)CC4)ncc2C(=O)NCc2ccccc2)cc1Cl` [Compound 10, N-benzyl-4-(3-chloro-4-methoxybenzyloxy)-2-(6-azaspiro[2.5]octan-6-yl)pyrimidine-5-carboxamide], the IC50 in series [2] (setting [7]) came out at 1.14 nM. Also, the half-life in series [4] (iv, 1 mg/kg) was 2.35 h.
For the compound `COc1ccc(COc2nc(N3CCC4(CC4)C3)ncc2C(=O)N[C@H]2CC[C@H](O)CC2)cc1Cl` [Compound 19, 4-(3-chloro-4-methoxybenzyloxy)-N-[(trans)-4-hydroxycyclohexyl]-2-(5-azaspiro[2.4]heptan-5-yl)-pyrimidine-5-carboxamide], the IC50 in series [2] (setting [7]) is 4.08 nM. Besides, in series [3] (setting [9]), the “Effects on penis length, AUC (mm × min)” value is given as 523.3 mm × min. In addition, the half-life is 1.17 h in series [4] (iv, 1 mg/kg) and 1.97 h in series [4] (po, 2 mg/kg).
Consider `COc1ccc(CN=c2[nH]c(N3CCC[C@H]3CO)ncc2C(=O)NCc2ncccn2)cc1Cl` [Avanafil, reference compound], for which the IC50 in series [2] (Avanafil control value given, read-out: IC50 values for PDE-5A, Avanafil/PDE-5A) is 10.8 nM (11×) and 19.2 nM and 12.7 nM (2×) and 17.3 nM (4×). Besides, the “Effects on penis length, AUC (mm × min)” value is 155.1 mm × min in series [3] (setting [9]), 132.3 mm × min in series [3] (setting [8]), 168.3 mm × min in series [3] (setting [10]) and 146.4 mm × min in series [3] (setting [11]). In series [1] (selectivity), the “ratio of PDE-6/5” value is listed as “about 120”. For the same compound, in series [5], the “half-life in human body” value is “about 1.2 h”. Besides, the “inhibition of PDE-11” value in series [6] is given as “does not inhibit PDE-11”. Also, the half-life was 0.53 h in series [4] (iv, 2 mg/kg) and 0.51 h in series [4] (po, 2 mg/kg).
For `COc1ccc(COc2nc(N3CC4CC4C3)ncc2C(=O)N[C@H]2CC[C@H](O)CC2)cc1Cl` (stereo partly drawn) [Compound 7, 2-(3-azadicyclo[3.1.0]hexan-3-yl)-4-(3-chloro-4-methoxy-benzyloxy)-N-[(trans)-4-hydroxycyclohexyl]pyrimidine-5-carboxamide], the IC50 in series [2] (setting [7]) was found to be 0.739 nM. Besides, in series [3] (setting [10]), the “Effects on penis length, AUC (mm × min)” value is 191.5 mm × min. Besides, the half-life is 1.02 h in series [4] (iv, 2 mg/kg) and 1.59 h in series [4] (po, 4 mg/kg).
`COc1ccc(COc2nc(N3CC4CC4C3)ncc2C(=O)NCc2ncccn2)cc1Cl` (stereo not drawn) [Compound 3, 2-(3-azadicyclo[3.1.0]hexan-3-yl)-4-(3-chloro-4-methoxy-benzyloxy)-N-(pyrimidin-2-ylmethyl)pyrimidine-5-carboxamide]: the IC50 in series [2] (setting [7]) worked out at 0.1 nM.
`COc1ccc(COc2nc(N3CC4CC4C3)ncc2C(=O)NCc2ccccc2)cc1Cl` (stereo not drawn) [Compound 1, N-benzyl-2-(3-azadicyclo[3.1.0]hexan-3-yl)-4-(3-chloro-4-methoxybenzyloxy) pyrimidine-5-carboxamide]: the IC50 in series [2] (setting [7]) came out at 0.172 nM. For the same compound, the half-life in series [4] (iv, 1 mg/kg) was 3.96 h.
Consider `COc1ccc(COc2nc(N3CCC4(CC4)C3)ncc2C(=O)NCc2ccccc2)cc1Cl` [Compound 15, N-benzyl-4-(3-chloro-4-methoxybenzyloxy)-2-(5-azaspiro[2.4]heptan-5-yl)-pyrimidine-5-carboxamide], for which the IC50 in series [2] (setting [7]) came to 0.119 nM. For the same compound, in series [3] (setting [11]), the “Effects on penis length, AUC (mm × min)” value is 339.3 mm × min. Besides, the half-life in series [4] (iv, 1 mg/kg) was 3.32 h.
Regarding `CCCc1nc(C)c2c(=O)[nH]c(-c3cc(S(=O)(=O)N4CCN(CC)CC4)ccc3OCC)nn12` [Vardenafil], the “inhibition of PDE-6” value in series [1] is listed as “inhibit PDE-6 to some extent”.
Consider `COc1ccc(COc2nc(N3CC4CC4C3)ncc2C(=O)NCc2ccc(F)cc2)cc1Cl` (stereo not drawn) [Compound 6, 2-(3-azadicyclo[3.1.0]hexan-3-yl)-4-(3-chloro-4-methoxy-benzyloxy)-N-(4-fluorobenzyl)pyrimidine-5-carboxamide], for which the IC50 in series [2] (setting [7]) is 0.075 nM. The same compound gave a half-life in series [4] (iv, 1 mg/kg) of 1.74 h.
Turning to `COc1ccc(COc2nc(N3CCC4(CC3)CC4)ncc2C(=O)N[C@H]2CC[C@H](O)CC2)cc1Cl` [Compound 12, 4-(3-chloro-4-methoxybenzyloxy)-N-[(trans)-4-hydroxycyclohexyl]-2-(6-azaspiro[2.5]octan-6-yl)pyrimidine-5-carboxamide], the IC50 in series [2] (setting [7]) was found to be 0.719 nM. The half-life in series [4] (iv, 1 mg/kg) is 1.44 h; in series [4] (po, 1 mg/kg), 1.94 h.
On to `COc1ccc(COc2nc(N3CCC4(CC3)CC4)ncc2C(=O)NCc2ncccn2)cc1Cl` [Compound 8, 4-(3-chloro-4-methoxybenzyloxy)-N-(pyrimidin-2-ylmethyl)-2-(6-azaspiro[2.5]octan-6-yl)pyrimidine-5-carboxamide], for which the IC50 in series [2] (setting [7]) was 0.476 nM. Besides, the half-life in series [4] (iv, 1 mg/kg) was 1.34 h.
On to `COc1ccc(COc2nc(N3CCC4(CC3)CC4)ncc2C(=O)NCCN2CCOCC2)cc1Cl` [Compound 11, 4-(3-chloro-4-methoxybenzyloxy)-N-(2-morpholinylethyl)-2-(6-azaspiro[2.5]octan-6-yl)pyrimidine-5-carboxamide], for which the IC50 in series [2] (setting [7]) worked out at 0.935 nM.
For `COc1ccc(COc2nc(N3CCCC34CC4)ncc2C(=O)NCc2ccccc2)cc1Cl` [Compound 14, N-benzyl-4-(3-chloro-4-methoxybenzyloxy)-2-(4-azaspiro[2.4]heptan-4-yl)-pyrimidine-5-carboxamide], the IC50 in series [2] (setting [7]) is 1.98 nM. Also, the “Effects on penis length, AUC (mm × min)” value in series [3] (setting [10]) turned out to be 290.1 mm × min. The same compound showed a half-life in series [4] (iv, 1 mg/kg) of 2.21 h.
For `COc1ccc(COc2nc(N3CCCC34CC4)ncc2C(=O)N[C@H]2CC[C@H](O)CC2)cc1Cl` [Compound 20, 4-(3-chloro-4-methoxybenzyloxy)-N-[(trans)-4-hydroxycyclohexyl]-2-(4-azaspiro[2.4]heptan-4-yl)pyrimidine-5-carboxamide], the half-life in series [4] (iv, 1 mg/kg) was 0.87 h.
For the compound `COc1ccc(COc2nc(N3CC4CC4C3)ncc2C(=O)NCc2ccccn2)cc1Cl` (stereo not drawn) [Compound 4, 2-(3-azadicyclo[3.1.0]hexan-3-yl)-4-(3-chloro-4-methoxybenzyloxy)-N-(pyridin-2-ylmethyl)pyrimidine-5-carboxamide], in series [2] (setting [7]), the IC50 was 0.028 nM. This compound also showed a half-life in series [4] (iv, 1 mg/kg) of 0.66 h.
`CN1CC(=O)N2[C@H](c3ccc4c(c3)OCO4)c3[nH]c4ccccc4c3C[C@@H]2C1=O` [Tadalafil]: the “half-life in human body” value in series [5] is “about 16 h”.
